Data on eight compounds can be found in ChEMBL document CHEMBL1201862, “PubChem BioAssay data set” (2004).

The target of assay [1] is T1, Dual specificity protein phosphatase 6 (Rattus norvegicus, UniProt Q64346).
T1 sequence (Q64346 whole entry): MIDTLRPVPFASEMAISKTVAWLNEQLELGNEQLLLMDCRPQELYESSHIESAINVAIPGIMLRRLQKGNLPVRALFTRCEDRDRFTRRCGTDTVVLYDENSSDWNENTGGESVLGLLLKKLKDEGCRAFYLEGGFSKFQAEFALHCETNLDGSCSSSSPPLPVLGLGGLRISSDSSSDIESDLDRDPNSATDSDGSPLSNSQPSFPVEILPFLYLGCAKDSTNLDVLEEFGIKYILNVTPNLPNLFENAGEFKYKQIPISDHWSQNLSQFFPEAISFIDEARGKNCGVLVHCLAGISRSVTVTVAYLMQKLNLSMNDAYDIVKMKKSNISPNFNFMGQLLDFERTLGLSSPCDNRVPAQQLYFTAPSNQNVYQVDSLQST

Assay [2] deals with Heat shock cognate 71 kDa protein (Homo sapiens, UniProt P11142). The assay is described as follows: In Vitro Hsc70 Dose Response Fluorescence Polarization Assay. [Related pubchem assays: 1072 ].
In assay [3] the target is Glyceraldehyde-3-phosphate dehydrogenase (Homo sapiens, UniProt P04406).
The target of assay [4] is Heat shock 70 kDa protein 1A (Homo sapiens, UniProt P0DMV8). The assay is described as follows: inhibition of Hsp70 binding activity – biochemical, fluorescence polarization, SAR follow-up (AID 1072).
Assay [5] concerns the target T2, Tyrosine-protein phosphatase non-receptor type 7 (Homo sapiens, UniProt P35236).
T2 sequence (P35236 whole entry): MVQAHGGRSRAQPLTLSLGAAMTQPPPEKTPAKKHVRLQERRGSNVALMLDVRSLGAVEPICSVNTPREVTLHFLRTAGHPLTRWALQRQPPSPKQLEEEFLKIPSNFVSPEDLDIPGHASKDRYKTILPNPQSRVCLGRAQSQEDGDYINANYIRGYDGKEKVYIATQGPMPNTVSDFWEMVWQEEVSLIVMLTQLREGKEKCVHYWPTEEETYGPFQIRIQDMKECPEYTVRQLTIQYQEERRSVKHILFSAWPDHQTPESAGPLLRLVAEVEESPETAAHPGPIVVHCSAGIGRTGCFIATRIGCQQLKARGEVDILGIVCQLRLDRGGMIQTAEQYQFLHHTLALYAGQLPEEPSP
In kind it is functional.

Assay [6] addresses T1, Dual specificity protein phosphatase 6. In kind it is functional.
The next assay has as its system HeLa. Nature of the assay: Cytotoxicity counterscreen assay for transcriptional activators of heat shock protein 70 (Hsp70). [Related pubchem assays: 1203, 1252 ]. In kind it is functional. The note with it: Homo sapiens.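 Further: cells exposed to compound for 16 hours before readout.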
Assay [7] has as its target Lysosomal acid glucosylceramidase (Homo sapiens, UniProt P04062). The assay is described as follows: Dose response cell-based high throughput screening assay to identify enhancers of beta-glucosidase activity. [Related pubchem assays: 784 ]. The class given is functional.
In assay [8] the target is 5-hydroxytryptamine receptor 1A (Homo sapiens, UniProt P08908). The class given is functional.
Assay [9] has as its system Vibrio harveyi. The assay is described as follows: Quorum Sensing, LuxS, LuxPQ Measured in Microorganism System Using Plate Reader - 2035-01_Inhibitor_DoseNoFile_DryPowder_Activity. [Related pubchem assays (depositor defined):AID2106]. In kind it is functional, organism-based.
Assay [10] deals with Vibrio harveyi. Nature of the assay: LuxS/LuxPQ-dependent luminescence inhibition, V. harveyi – dry powder, set 2, dose response (AID 493072). In kind it is functional, organism-based.
Assay [11] has as its target T3, Dual specificity protein phosphatase 3 (Homo sapiens, UniProt P51452). The assay is described as follows: SAR VHR1 Fluorescent Assay for In Vitro dose response studies. [Related pubchem assays (depositor defined):AID1654, AID1661, AID1878, AID1992, AID2004, AID2070, AID2085]. The class given is functional.
Assay [12] deals with T2, Tyrosine-protein phosphatase non-receptor type 7. Nature of the assay: redox-active compounds inhibiting HePTP phosphatase – biochemical, fluorescence, mechanism study (AID 2068). The class given is functional.
The target in assay [13] is T4, Short transient receptor potential channel 4 (Mus musculus, UniProt Q9QUQ5).
T4 sequence (Q9QUQ5 whole entry): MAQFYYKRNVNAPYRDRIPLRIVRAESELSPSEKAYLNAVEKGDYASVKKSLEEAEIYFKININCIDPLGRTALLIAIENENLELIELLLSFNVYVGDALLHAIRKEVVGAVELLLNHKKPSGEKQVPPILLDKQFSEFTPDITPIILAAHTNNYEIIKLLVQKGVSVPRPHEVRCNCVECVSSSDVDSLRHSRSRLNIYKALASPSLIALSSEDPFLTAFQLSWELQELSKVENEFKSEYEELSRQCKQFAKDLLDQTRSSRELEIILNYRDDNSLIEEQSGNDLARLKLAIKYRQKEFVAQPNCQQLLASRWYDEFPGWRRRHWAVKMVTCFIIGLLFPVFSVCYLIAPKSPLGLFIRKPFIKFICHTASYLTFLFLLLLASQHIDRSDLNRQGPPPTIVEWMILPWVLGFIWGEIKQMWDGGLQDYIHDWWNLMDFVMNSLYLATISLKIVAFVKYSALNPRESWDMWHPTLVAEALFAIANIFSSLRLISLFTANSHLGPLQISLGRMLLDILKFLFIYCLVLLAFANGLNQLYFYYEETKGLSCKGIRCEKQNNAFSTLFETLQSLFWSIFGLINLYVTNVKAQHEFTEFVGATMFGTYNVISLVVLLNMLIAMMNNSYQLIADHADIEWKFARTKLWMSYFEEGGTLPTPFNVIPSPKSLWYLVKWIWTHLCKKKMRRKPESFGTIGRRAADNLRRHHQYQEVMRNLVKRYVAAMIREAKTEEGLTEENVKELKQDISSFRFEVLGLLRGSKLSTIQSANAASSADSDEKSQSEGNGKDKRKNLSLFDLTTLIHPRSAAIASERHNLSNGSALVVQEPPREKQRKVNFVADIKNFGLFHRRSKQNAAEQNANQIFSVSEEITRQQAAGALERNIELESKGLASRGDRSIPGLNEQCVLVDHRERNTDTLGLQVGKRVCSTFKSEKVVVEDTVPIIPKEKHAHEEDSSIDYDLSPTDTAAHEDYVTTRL
Nature of the assay: calcium entry via TRPC4 opening agents – cell-based, HEK293 TRPC4/mu-opioid, Fluo-4 calcium, dose response (AID 434937). In kind it is functional.

Assay [14] deals with T3, Dual specificity protein phosphatase 3. Nature of the assay: MOA VHR1 Fluorescent secondary assay for identification of redox-state modulating compounds. [Related pubchem assays (depositor defined):AID1654, AID1661, AID1878, AID1957].
For another assay, the target named is Mucolipin-3 (Homo sapiens, UniProt Q8TDD5). The assay is described as follows: Dose response cell-based high-throughput screening assay for agonists of the transient receptor potential channel ML3 (TRPML3). [Related pubchem assays: 1526, 1424, 1448 ]. In kind it is functional.
Another assay has as its system H9c2. The assay is described as follows: cells. In kind it is functional, cell-based. The conditions noted are these: Rattus norvegicus, H9c2, Myocardium.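 Further: confirmatory concentration-response retest of ultra-high-throughput screening hits for modulation of myocardial damage; cell death induced by hydrogen peroxide oxidative stress; compound pretreatment for 60 min then peroxide exposure for 2 h; potency is for protecting the cells against peroxide damage rather than for killing them.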
A further assay deals with Ion channel NompC (Danio rerio, UniProt Q7T1G6). Nature of the assay: Fluorescence counterscreen assay for TRPML3 agonists: dose response cell-based high-throughput screening assay to identify agonists of the transient receptor potential channel N1 (TRPN1). [Related pubchem assays: 1526, 1424, 1448 ]. The class given is functional.
The target in assay [15] is T5, Alkaline phosphatase, tissue-nonspecific isozyme (Homo sapiens, UniProt P05186).
T5 sequence (P05186 whole entry): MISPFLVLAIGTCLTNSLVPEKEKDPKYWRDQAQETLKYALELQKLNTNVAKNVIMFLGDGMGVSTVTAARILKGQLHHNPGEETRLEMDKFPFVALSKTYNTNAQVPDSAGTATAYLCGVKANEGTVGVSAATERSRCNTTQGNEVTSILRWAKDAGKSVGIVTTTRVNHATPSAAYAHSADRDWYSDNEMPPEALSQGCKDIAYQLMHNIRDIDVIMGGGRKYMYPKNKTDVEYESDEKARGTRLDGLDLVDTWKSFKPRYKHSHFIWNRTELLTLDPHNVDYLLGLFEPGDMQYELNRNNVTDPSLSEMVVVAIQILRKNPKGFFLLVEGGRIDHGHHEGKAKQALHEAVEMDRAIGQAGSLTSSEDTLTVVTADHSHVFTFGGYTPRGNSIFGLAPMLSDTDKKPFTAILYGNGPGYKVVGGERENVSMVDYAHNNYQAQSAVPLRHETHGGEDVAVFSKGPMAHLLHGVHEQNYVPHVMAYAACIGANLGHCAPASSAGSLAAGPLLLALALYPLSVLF

For another assay, the target named is Chaperone protein dnaK (Escherichia coli, UniProt C3TRK2). The assay is described as follows: E. coli DnaK binders, calorimetric Kd – biophysical, isothermal titration calorimetry, beta-domain, full-length DnaK, orthogonal assay for DnaK modulator project, SAR follow-up (AID 1495).

Active and inactive are the calls of the source. Bounds are passed on as bounds.

T3 sequence (P51452 whole entry): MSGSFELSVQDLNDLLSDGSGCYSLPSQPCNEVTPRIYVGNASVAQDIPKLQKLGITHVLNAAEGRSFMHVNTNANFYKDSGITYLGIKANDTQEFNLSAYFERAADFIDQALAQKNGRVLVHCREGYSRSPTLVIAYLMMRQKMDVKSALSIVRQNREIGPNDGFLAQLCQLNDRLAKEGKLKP
Chain of Glyceraldehyde-3-phosphate dehydrogenase (P04406 whole entry): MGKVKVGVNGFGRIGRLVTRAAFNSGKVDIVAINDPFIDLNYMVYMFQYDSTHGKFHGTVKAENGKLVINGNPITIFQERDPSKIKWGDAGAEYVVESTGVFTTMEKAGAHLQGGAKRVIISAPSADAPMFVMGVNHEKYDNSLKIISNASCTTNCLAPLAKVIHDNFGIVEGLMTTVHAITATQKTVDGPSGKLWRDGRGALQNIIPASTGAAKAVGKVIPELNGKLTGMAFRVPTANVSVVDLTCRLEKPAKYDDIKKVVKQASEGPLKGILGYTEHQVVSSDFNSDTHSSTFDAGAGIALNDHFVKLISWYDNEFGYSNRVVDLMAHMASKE
Chain of Mucolipin-3 (Q8TDD5 whole entry): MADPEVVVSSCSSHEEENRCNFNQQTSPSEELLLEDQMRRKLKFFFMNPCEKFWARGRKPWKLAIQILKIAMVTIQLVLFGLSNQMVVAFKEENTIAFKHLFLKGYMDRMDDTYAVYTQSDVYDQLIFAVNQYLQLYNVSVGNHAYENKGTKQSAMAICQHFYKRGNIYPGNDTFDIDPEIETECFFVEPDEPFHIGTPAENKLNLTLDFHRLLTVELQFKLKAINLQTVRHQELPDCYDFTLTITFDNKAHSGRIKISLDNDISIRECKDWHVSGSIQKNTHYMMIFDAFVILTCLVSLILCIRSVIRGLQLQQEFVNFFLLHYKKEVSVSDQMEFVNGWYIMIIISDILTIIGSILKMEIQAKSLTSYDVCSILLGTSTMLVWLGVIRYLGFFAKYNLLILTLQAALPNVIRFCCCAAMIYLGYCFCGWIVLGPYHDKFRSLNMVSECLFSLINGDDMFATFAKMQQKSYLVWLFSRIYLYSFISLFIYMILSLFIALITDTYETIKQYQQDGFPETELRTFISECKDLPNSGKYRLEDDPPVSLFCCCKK
Chain of Heat shock 70 kDa protein 1A (P0DMV8 whole entry): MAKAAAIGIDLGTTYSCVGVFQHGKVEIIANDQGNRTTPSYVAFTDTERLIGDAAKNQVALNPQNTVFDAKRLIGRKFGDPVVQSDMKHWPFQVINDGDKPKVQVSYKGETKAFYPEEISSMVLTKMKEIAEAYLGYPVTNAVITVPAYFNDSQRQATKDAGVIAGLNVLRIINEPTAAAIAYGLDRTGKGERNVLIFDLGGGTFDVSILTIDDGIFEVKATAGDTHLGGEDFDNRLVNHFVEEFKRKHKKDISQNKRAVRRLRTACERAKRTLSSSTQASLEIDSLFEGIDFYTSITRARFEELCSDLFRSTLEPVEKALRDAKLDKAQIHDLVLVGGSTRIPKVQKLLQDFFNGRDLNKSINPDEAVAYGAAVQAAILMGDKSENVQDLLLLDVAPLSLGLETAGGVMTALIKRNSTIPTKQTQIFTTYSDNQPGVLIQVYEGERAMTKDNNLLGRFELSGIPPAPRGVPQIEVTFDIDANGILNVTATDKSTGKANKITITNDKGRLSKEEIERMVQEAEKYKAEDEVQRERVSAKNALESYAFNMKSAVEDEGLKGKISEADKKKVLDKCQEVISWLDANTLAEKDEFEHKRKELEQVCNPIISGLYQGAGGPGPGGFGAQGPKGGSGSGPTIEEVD
Chain of Ion channel NompC (Q7T1G6 whole entry): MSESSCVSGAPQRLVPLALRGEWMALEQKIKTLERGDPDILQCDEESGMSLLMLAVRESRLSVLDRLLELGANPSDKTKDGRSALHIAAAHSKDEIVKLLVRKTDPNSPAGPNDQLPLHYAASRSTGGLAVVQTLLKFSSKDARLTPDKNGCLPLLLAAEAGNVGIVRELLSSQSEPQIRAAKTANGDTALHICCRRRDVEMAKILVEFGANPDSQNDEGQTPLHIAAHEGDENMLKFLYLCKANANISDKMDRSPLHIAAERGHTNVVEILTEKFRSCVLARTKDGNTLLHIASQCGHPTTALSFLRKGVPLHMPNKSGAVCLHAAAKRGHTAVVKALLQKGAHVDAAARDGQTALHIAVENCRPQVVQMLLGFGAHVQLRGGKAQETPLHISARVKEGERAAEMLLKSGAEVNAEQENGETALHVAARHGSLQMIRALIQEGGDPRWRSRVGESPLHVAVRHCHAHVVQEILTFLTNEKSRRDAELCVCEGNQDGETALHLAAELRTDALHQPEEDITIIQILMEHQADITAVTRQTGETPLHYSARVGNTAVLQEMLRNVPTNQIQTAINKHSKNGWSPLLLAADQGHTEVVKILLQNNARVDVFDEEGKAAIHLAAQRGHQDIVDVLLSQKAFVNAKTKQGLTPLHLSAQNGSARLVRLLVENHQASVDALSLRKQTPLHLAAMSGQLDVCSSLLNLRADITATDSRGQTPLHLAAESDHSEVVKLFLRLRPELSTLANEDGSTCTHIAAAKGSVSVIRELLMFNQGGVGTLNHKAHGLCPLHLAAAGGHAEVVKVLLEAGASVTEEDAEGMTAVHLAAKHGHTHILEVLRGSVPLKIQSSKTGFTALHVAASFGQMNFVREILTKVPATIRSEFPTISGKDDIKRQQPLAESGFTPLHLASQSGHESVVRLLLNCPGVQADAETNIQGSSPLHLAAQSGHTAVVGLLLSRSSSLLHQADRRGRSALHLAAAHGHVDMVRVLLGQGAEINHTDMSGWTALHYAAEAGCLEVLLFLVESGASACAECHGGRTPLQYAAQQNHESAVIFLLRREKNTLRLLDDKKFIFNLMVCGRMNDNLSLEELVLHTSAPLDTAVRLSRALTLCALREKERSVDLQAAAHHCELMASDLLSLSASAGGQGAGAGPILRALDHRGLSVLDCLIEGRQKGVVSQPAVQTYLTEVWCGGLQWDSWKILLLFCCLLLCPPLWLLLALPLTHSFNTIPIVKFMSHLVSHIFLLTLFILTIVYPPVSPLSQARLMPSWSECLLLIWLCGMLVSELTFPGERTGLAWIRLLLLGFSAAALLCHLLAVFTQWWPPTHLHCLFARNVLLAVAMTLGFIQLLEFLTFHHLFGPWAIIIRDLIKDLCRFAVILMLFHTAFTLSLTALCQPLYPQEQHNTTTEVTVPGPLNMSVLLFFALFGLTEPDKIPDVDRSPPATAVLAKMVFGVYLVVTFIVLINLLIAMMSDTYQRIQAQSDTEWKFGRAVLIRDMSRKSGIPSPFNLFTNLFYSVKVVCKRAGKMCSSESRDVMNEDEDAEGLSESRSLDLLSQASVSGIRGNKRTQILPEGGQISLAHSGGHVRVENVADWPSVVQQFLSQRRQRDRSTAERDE
Chain of 5-hydroxytryptamine receptor 1A (P08908 whole entry): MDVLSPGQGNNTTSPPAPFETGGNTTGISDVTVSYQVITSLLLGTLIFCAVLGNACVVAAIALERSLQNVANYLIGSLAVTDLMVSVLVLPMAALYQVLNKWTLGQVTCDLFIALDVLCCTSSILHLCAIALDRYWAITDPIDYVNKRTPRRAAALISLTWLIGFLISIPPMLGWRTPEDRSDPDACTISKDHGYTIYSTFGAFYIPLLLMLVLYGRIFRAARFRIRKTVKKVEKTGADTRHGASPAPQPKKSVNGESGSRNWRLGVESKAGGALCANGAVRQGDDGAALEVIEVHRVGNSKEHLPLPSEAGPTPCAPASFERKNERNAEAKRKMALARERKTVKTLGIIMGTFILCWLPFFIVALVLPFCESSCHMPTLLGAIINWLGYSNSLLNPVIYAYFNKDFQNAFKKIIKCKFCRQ
Chain of Heat shock cognate 71 kDa protein (P11142 whole entry): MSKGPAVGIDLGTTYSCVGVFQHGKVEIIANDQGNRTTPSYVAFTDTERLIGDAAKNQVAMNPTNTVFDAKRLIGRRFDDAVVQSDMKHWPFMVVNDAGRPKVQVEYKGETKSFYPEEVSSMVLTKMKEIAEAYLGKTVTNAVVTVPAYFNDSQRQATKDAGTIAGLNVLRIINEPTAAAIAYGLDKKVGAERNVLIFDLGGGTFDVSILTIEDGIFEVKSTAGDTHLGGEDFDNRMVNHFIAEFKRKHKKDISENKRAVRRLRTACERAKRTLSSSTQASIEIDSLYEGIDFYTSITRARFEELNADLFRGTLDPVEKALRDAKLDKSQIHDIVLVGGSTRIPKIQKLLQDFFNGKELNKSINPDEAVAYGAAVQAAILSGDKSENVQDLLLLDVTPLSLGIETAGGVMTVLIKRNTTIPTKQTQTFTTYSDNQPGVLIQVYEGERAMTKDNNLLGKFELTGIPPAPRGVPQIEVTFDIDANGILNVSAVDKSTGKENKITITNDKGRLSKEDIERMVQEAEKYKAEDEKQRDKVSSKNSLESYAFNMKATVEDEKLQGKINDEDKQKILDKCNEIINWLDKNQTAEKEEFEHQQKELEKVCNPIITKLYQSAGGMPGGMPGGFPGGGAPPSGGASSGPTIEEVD
Chain of Lysosomal acid glucosylceramidase (P04062 whole entry): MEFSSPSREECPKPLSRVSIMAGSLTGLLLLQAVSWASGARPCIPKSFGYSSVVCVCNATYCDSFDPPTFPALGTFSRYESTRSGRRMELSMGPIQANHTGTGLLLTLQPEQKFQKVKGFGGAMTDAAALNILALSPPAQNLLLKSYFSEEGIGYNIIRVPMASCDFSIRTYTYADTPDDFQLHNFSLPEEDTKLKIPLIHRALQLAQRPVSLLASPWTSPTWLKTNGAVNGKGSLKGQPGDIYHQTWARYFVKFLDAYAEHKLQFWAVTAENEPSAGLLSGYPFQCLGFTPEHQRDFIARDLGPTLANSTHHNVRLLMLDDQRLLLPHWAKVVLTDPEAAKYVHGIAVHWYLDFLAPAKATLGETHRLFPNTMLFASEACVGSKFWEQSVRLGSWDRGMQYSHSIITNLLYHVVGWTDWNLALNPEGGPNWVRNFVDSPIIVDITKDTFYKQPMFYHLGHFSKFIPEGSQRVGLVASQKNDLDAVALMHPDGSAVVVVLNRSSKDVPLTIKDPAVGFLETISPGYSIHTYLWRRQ

In the case of `O=C(O)C1Nc2c(I)cccc2C2C=CCC12` (stereo not given), the IC50 in [1] was > 100 µM (inactive); in assay [2], 14.1 µM (active); in assay [3], 47.8 µM (active); in [4], 3.13 µM (active); in [5], 71.4 µM (active); in assay [6] it was > 100 µM (inactive).

With `COc1ccc(C(CNC(=O)c2cc3ccccc3o2)N2CCCCC2)cc1` (stereo not given), the CC50 with HeLa is listed as > 99 µM (not active).

Take `CCc1ccc(NC(=O)Cn2c(SC)nc3ccccc32)cc1`: the EC50 in assay [7] and in assay [8] was > 50 µM (not active) in each case.

Take `C=Cn1c(C(=O)O)ccc1-c1ccc(CC)cc1`: the AC50 with Vibrio harveyi [9] was 2.73 µM (active); with Vibrio harveyi [10], 5.53 µM (active); in the assay on Vibrio harveyi [10] (Vibrio harveyi) it was 4.66 µM (active).

In the case of `Cc1cc2nc3s/c(=C/c4ccc(-c5ccccc5C(=O)O)o4)c(=O)n3c2cc1C`, the IC50 in [11] was 7.49 µM (active); in [12], 2.65 µM (active); in assay [14] it was 2.39 µM (active); in [1], 9 µM (active); in assay [3], > 100 µM (not active); in [5], 3.63 µM (active). Moreover, in assay [6], the half-inhibitory concentration (IC50) is 26.4 µM (active). Besides, the EC50 in assay [13] is 5.96 µM (active).

`CSc1nsc(SC)c1C(=O)N1CCN(S(=O)(=O)c2ccc(C)cc2)C1C(C)C` (stereo not given): the EC50 at Mucolipin-3 is on record as 10.5 µM (not active); at Ion channel NompC it was > 29.9 µM (not active). Moreover, the IC50 in the assay with H9c2 is > 79 µM (inactive).

For `Cc1ccc(O)c(-c2cc(C(=O)NCc3ccccc3)[nH]n2)c1`, in assay [15], the EC50 is on record as > 100 µM (not active).

For the compound `O=C(NCc1ccc(Cl)c(Cl)c1)c1cccs1`, the Kd at Chaperone protein dnaK was 7.3 µM (active).
